In patent US20230146455A1, “TREATMENT OF INFLAMMATORY DISEASES WITH PEPTIDES AND PHARMACEUTICAL COMPOSITIONS” (Yuyu Pharma, Inc., priority 2020, published 2023):
Several values for one entry are separate records, joined by “and”; a condition that tells them apart may be missing. Equal values may be shown once. Where a SMILES comes first, the peptide text is derived from it. [ ]: non-standard residue; d: D form. Hyp = O=C(O)[C@@H]1C[C@@H](O)CN1

Columns and labels:
GM-CSF = test: Example 9 Luminex, LPS hPBMCs: GM-CSF; format: cell-based, human
Description: (§1) Treatment Human PBMCs were pretreated with YY-101, YDE-011 and YDE-043 or reference compound; Xiidra® at various concentration (ranging from 1 nM to 100 uM) for 2 h before stimulation. An equal volume of 0.5% DMSO was used as a vehicle control. Then, the cells were treated with LPS at 5 ug/ml. The supernatants from treated cells were harvested at 24 h and placed in a 96 well for Luminex cytokine & chemokine profiling using a Luminex 200 multiplex assay (Luminex; R&D system, USA).
(§2) The main study arm with triplicate wells per group in a 24-well plate: • 1. Blank • 2. PBMC: 0.5% DMSO • 3. PBMC+LPS (5 ug/ml) • 4. PBMC+YY-101 100 uM • 5. PBMC+YY-101 10 uM • 6. PBMC+YY-101 1 uM • 7. PBMC+YY-101 0.1 uM • 8. PBMC+YY-101 0.01 uM • 9. PBMC+LPS (5 ug/ml)+Xiidra®100 uM • 10. PBMC+LPS (5 ug/ml)+Xiidra® 10 uM • 11. PBMC+LPS (5 ug/ml)+Xiidra® 1 uM • 12. PBMC+LPS (5 ug/ml)+Xiidra®0.1 uM • 13. PBMC+LPS (5 ug/ml)+Xiidra®0.01 uM • 14. PBMC+LPS (5 ug/ml)+Xiidra®0.001 uM • 15. PBMC+LPS (5 ug/ml)+YY-101 100 uM • 16. PBMC+LPS (5 ug/ml)+YY-101 10 uM • 17. PBMC+LPS (5 ug/ml)+YY-101 1 uM • 18. PBMC+LPS (5 ug/ml)+YY-101 0.1 uM • 19. PBMC+LPS (5 ug/ml)+YY-101 0.01 uM • 20. PBMC+LPS (5 ug/ml)+YY-101 0.001 uM • 21. PBMC+LPS (5 ug/ml)+YDE-011 100 uM • 22. PBMC+LPS (5 ug/ml)+YDE-011 10 uM • 23. PBMC+LPS (5 ug/ml)+YDE-011 1 uM • 24. PBMC+LPS (5 ug/ml)+YDE-011 0.1 uM • 25. PBMC+LPS (5 ug/ml)+YDE-011 0.01 uM • 26. PBMC+LPS (5 ug/ml)+YDE-011 0.001 uM • 27. PBMC+LPS (5 ug/ml)+YDE-043 100 uM • 28. PBMC+LPS (5 ug/ml)+YDE-043 10 uM • 29. PBMC+LPS (5 ug/ml)+YDE-043 1 uM • 30. PBMC+LPS (5 ug/ml)+YDE-043 0.1 uM • 31. PBMC+LPS (5 ug/ml)+YDE-043 0.01 uM • 32. PBMC+LPS (5 ug/ml)+YDE-043 0.001 uM
(§3) Multiplex assay was used to measure 30 cytokines and chemokines. The 1:2, 1:10 and 1:200 diluted cell supernatant and serial dilution of the standard were dispensed into a 96 well plate at 50 ul/well. Then, the pre-mixed cocktail of antibody-coated magnetic beads was dispensed at 50 ul/well and incubated at room temperature for 2 h in a horizontal orbital microplate shaker at 800±500 rpm. The beads were washed using a magnetic device to prevent loss. The biotin-antibody was dispensed in 50 ul of each well and incubated at room temperature for 1 h in a shaker at 800±500 rpm. After washing, streptavidin-PE was added at 50 ul/well and incubated at room temperature for 30 min in a shaker under the same conditions. Finally, after washing, wash buffer (100 ul/well) was added to the plate and incubated in a shaker for 2 min. The Luminex™ 200 setting were set according to the manufacturer's protocol. The data was calculated with a standard five-parameter logistic nonlinear regression analysis of the data (xPonent software 4.2, USA). The levels of cytokine/chemokine are normalized to the live cell counts (1×10^5 cells/mL) and presented as concentrations per mL (pg/mL or ng/mL).

VEGF-A = test: Example 9 Luminex, LPS hPBMCs: VEGF-A; format: cell-based, human; settings: for conc/live cell / Concentration: Bead VEGF-A; for Concentration: dilution 2.0
Description: as §1, §2, §3

[1] = PBMC + LPS(5 ug/ml) + test article 0.001 uM, Mean
[2] = PBMC + LPS(5 ug/ml) + test article 0.001 uM, single replicates
[3] = PBMC + LPS(5 ug/ml) + test article 0.01 uM, Mean
[4] = PBMC + LPS(5 ug/ml) + test article 0.01 uM, single replicates
[5] = PBMC + LPS(5 ug/ml) + test article 0.1 uM, Mean
[6] = PBMC + LPS(5 ug/ml) + test article 0.1 uM, single replicates
[7] = PBMC + LPS(5 ug/ml) + test article 1 uM, Mean
[8] = PBMC + LPS(5 ug/ml) + test article 1 uM, single replicates
[9] = PBMC + LPS(5 ug/ml) + test article 10 uM, Mean
[10] = PBMC + LPS(5 ug/ml) + test article 10 uM, single replicates
[11] = PBMC + LPS(5 ug/ml) + test article 100 uM, Mean
[12] = PBMC + LPS(5 ug/ml) + test article 100 uM, single replicates

## CC(C)C[C@H](NC(=O)CNC(=O)[C@H](CC(C)C)NC(=O)[C@H](CCC(N)=O)NC(=O)CNC(=O)[C@@H]1C[C@@H](O)CN1)C(=O)N[C@@H](C)C(=O)NCC(=O)N1CCC[C@H]1C(=O)N[C@@H](CCCCN)C(=O)O [YDE-011] (H-[Hyp]GQLGLAGPK-OH)
GM-CSF; [1]
  GM-CSF Concentration: 97.0 pg/mL
  GM-CSF conc/live cell: 18.3 pg/10^5
GM-CSF; [2]
  GM-CSF Concentration: 92.5 pg/mL and 96.3 pg/mL and 102.1 pg/mL
  GM-CSF conc/live cell: 20.6 pg/10^5 and 16.6 pg/10^5 and 17.6 pg/10^5
GM-CSF; [3]
  GM-CSF Concentration: 103.2 pg/mL
  GM-CSF conc/live cell: 17.9 pg/10^5
GM-CSF; [4]
  GM-CSF Concentration: 90.4 pg/mL and 108.0 pg/mL and 111.3 pg/mL
  GM-CSF conc/live cell: 14.3 pg/10^5 and 17.4 pg/10^5 and 21.8 pg/10^5
GM-CSF; [5]
  GM-CSF Concentration: 95.6 pg/mL
  GM-CSF conc/live cell: 16.7 pg/10^5
GM-CSF; [6]
  GM-CSF Concentration: 100.5 pg/mL and 90.8 pg/mL and 95.4 pg/mL
  GM-CSF conc/live cell: 15.2 pg/10^5 and 18.2 pg/10^5 and 16.7 pg/10^5
GM-CSF; [7]
  GM-CSF Concentration: 93.9 pg/mL
  GM-CSF conc/live cell: 18.7 pg/10^5
GM-CSF; [8]
  GM-CSF Concentration: 96.3 pg/mL and 92.5 pg/mL and 92.9 pg/mL
  GM-CSF conc/live cell: 17.5 pg/10^5 and 19.3 pg/10^5 and 19.4 pg/10^5
GM-CSF; [9]
  GM-CSF Concentration: 98.2 pg/mL
  GM-CSF conc/live cell: 18.7 pg/10^5
GM-CSF; [10]
  GM-CSF Concentration: 103.0 pg/mL and 92.9 pg/mL and 98.8 pg/mL
  GM-CSF conc/live cell: 19.1 pg/10^5 and 16.0 pg/10^5 and 21.0 pg/10^5
GM-CSF; [11]
  GM-CSF Concentration: 135.7 pg/mL
  GM-CSF conc/live cell: 22.4 pg/10^5
GM-CSF; [12]
  GM-CSF Concentration: 149.0 pg/mL and 127.8 pg/mL and 130.3 pg/mL
  GM-CSF conc/live cell: 24.4 pg/10^5 and 21.0 pg/10^5 and 21.7 pg/10^5
VEGF-A; [7]
  conc/live cell: 0.3 pg/10^5
  Concentration: 2.8 pg/mL
VEGF-A; [8]
  Concentration: 0.6 pg/mL
  conc/live cell: 0.0 pg/10^5 and 0.1 pg/10^5
  Concentration, Bead name: VEGF-A: 4.9 pg/mL
  MFI, Bead name: VEGF-A: −0.3
  conc/live cell, Bead name: VEGF-A: 0.9 pg/10^5
VEGF-A; [9]
  conc/live cell: 0.3 pg/10^5
  Concentration: 2.1 pg/mL
VEGF-A; [10]
  Concentration: 3.6 pg/mL and 0.6 pg/mL
  conc/live cell: 0.7 pg/10^5 and 0.0 pg/10^5 and 0.1 pg/10^5
VEGF-A; [11]
  conc/live cell: 0.0 pg/10^5
VEGF-A; [12]
  conc/live cell: 0.0 pg/10^5
VEGF-A; [1]
  Concentration, Bead name: VEGF-A: 4.3 pg/mL
  MFI, Bead name: VEGF-A: −0.4
  conc/live cell, Bead name: VEGF-A: 0.8 pg/10^5
VEGF-A; [2]
  Concentration, Bead name: VEGF-A: 6.1 pg/ml (2×) and 0.6 pg/ml
  MFI, Bead name: VEGF-A: 0.3 (2×) and −1.8
  conc/live cell, Bead name: VEGF-A: 1.4 pg/10^5 and 0.1 pg/10^5 and 1.1 pg/10^5
VEGF-A; [3]
  Concentration, Bead name: VEGF-A: 2.8 pg/mL
  MFI, Bead name: VEGF-A: −1.6
  conc/live cell, Bead name: VEGF-A: 0.3 pg/10^5
VEGF-A; [4]
  Concentration, Bead name: VEGF-A: 4.9 pg/mL and 0.6 pg/mL
  MFI, Bead name: VEGF-A: −0.3 and −2.8 and −1.8
  conc/live cell, Bead name: VEGF-A: 0.8 pg/10^5 and 0.0 pg/10^5 and 0.1 pg/10^5
VEGF-A; [5]
  Concentration, Bead name: VEGF-A: 0.6 pg/mL
  MFI, Bead name: VEGF-A: −2.1
  conc/live cell, Bead name: VEGF-A: 0.1 pg/10^5
VEGF-A; [6]
  Concentration, Bead name: VEGF-A: 0.6 pg/mL
  MFI, Bead name: VEGF-A: −1.8 (2×) and −2.8
  conc/live cell, Bead name: VEGF-A: 0.1 pg/10^5 (2×) and 0.0 pg/10^5
